Measurements: patent US11541056B2, “3-hydroxy-N-(3-(7H-pyrrolo[2,3-d]pyrimidin-4-yl)phenyl)pyrrolidine-1-carboxamide derivatives” (NOVARTIS AG, priority 2018, dated 2023)

Assays:
Format in all cases: cell-based
BTK-GFP = molecular target: T1, BTK-GFP (Homo sapiens, UniProt Q06187+Q96SW2); experiment: BTK-GFP protein abundance flow cytometry assay in HEK293A cells; details: 24 h; for BTK deg Amax %: % protein remaining at concentration of maximum degradation; for DC50: concentration at which 50% maximal degradation was observed
T1 construct: the BTK open reading frame (ORF) was first shuttled from a pcDNA-DEST40-BTK vector (Invitrogen library ID INV_20090504v1); expressed in transfected cells; host or cells: HEK293A cells (Invitrogen R70507), lentiviral transduction with pLenti6-BTK-GFP-Ires-RFP, blasticidin-selected
Procedure: (§1) Compounds of the invention were tested in the following cellular assays. The terms in Table 1 are defined as follows: DC50 refers to the concentration at which 50% maximal degradation was observed; deg Amax is the extent of degradation and the value refers to the % protein remaining at the concentration at which maximum degradation is seen; Prol GI50 refers to the proliferation data and defines the concentration at which 50% growth inhibition was observed compared to the vehicle treated control at the end of the incubation time. TMD8 cells are BTK dependent and OCI-LY3 cells are BTK independent.
(§2) BTK-GFP and IKZF3-GFP Protein Abundance Flow Cytometry Assay in HEK293A Cells:
(§3) Degradation of BTK or IKZF3 was measured in HEK293A cells (Invitrogen R70507) expressing either BTK-GFP and RFP or IKZF3-GFP and RFP from a stably integrated bicistronic BTK-GFP-iresRFP or IKZF3-GFP-iresRFP construct, respectively. Reduction of the GFP signal measured by flow cytometry served as readout for BTK or IKZF3 degradation after degrader treatment.
(§4) Stable HEK293A-BTK-GFP-iresRFP cells were maintained in complete growth medium (DMEM high Glucose+10% FCS+1% L-Glutamine+1% NEAA+1% NaPyr.) with passaging performed twice per week. On Day 0, HEK293A-BTK-GFP-iresRFP or HEK293A-IKZF3-GFP-iresRFP and HEK293A-iresRFP cells were seeded at 10,000 cells/well in a 96-well microtiter plate in 260 μl complete medium. On Day 1, cells were treated in duplicate with 10-point 1:3 dilution series of compound using the HP D300 Digital Dispenser (Tecan). DMSO concentrations were normalized across the plate to 0.1%. On Day 2, after 24 h of incubation at 37° C., treatment media was discarded, cells rinsed with 100 ul/well PBS and then detached using 40 ul trypsin/well for 5 min. Trypsin was neutralized with 100 ul/well PBS+20% FCS). Flow cytometry was performed on the samples using the BD FACS CANTO II (Becton Dickinson). Cell identification was then performed using forward (FSC) vs. side scatter (SSC) plots. Single cell discrimination is performed using SSC-Width (SSC-W) vs. SSC-Height (SSC-H) plots. Median GFP values for 5,000 single cells are used to determine BTK levels. Median GFP values from HEK293A-iresRFP are used as a background signal and thus defining 0% BTK signal. Median GFP values from DMSO treated HEK293A-BTK-GFP-iresRFP or HEK293A-IKZF3-GFP-iresRFP are used to define 100% BTK signal for subsequent DC50 curves (concentration at 50% BTK degradation). GFP and RFP are read in the channels called FITC and PE, respectively.
(§5) Concentration response curves plotting relative reduction of the GFP signal (measured by flow cytometry) versus 10 compound concentrations (starting concentration 10 μM, 3 fold dilution steps) of the compounds allowed generation of DC50 values.

TMD8 cells = experiment: Resazurin cell viability assay in DLBCL cells (TMD8); details: Homo sapiens, TMD8, 72 h, TMD8 cells (BTK dependent), 50% growth inhibition, read-out: TMD8 Prol GI50
Procedure: as §1
(§6) Cell Viability Assay in DLBCL (Diffuse Large B-Cell Lymphoma) Cells:
(§7) The effect of the BTK compounds on cell proliferation was measured by a Resazurin (Sigma, #R7017) based cell viability assay. TMD8 (BTK compound sensitive) and OCI-LY3 (BTK compound insensitive) cells were incubated for 72 h at 37° C. and 5% CO2 with the corresponding compound. Resazurin is a non-toxic, cell-permeable substrate that is virtually non-fluorescent. Upon entering living cells, Resazurin (Sigma, #R7017) is reduced to highly fluorescent Resorufin. The metabolic activity was assessed by measuring the fluorescence signal (ex. 530 nm; em. 600 nm).
(§8) TMD8 and OCI-Ly3 cells were seeded at day 0 in triplicates at a cell density of 1×10^4 cells per 150 μl/well in a 96-well plate (Costar #3904). Additional plates were prepared, in order to assess the basal metabolic activity of both cell lines at the beginning of the experiment. For these reference plates, Resazurin (Sigma, #R7017) was added to a final concentration of 13 μg/ml 3 h post seeding and was incubated for 2 h at 37° C. and 5% CO2. Following incubation, the fluorescent signal intensity of the 96-well plates was measured on a Mithras LB940 multimode plate reader at 530/600 nm (Berthold Technologies, Germany).
(§9) In parallel, 3 h post-seeding, test-plates were treated with compound at various concentrations, or with vehicle (DMSO) alone for 3 days. The compound addition to the plates was performed by using a HP D300 digital dispenser (TECAN, Switzerland). The compounds were tested in triplicate, 8-point serial dilution (1:4), with a start concentration of 10 μM for OCI-LY3 and 1 μM for the TMD8 cells, respectively. To assess the relative proliferation of the cells, Resazurin was added to each well directly to the medium to a final concentration of 13 μg/ml. The plates were incubated for 2 h at 37° C. and 5% CO2 to result in a 72 h endpoint. Following incubation, the fluorescent signal intensity of the 96-well plates were measured on a Mithras LB940 multimode plate reader at 530/600 nm (Berthold Technologies, Germany). The formation of Resorufin dye directly correlates with the number of metabolically active cells. For each triplicate treatment the mean and standard deviation were calculated and analyzed via curve fitting software to determine the respective compound concentration resulting in 50% growth inhibition (GI50) values. For each compound GI50 values were typically determined from at least 2 entirely independent experiments.
TMD8 cells were acquired through a license agreement with Tokyo Medical and Dental University, Japan. Cells are cultivated in MEM Alpha (BioConcept, #1-23F01-I, lot. LB04262P) supplemented with 10% FCS (HyClone, GE #SH30066.03, lot AB217603), 2 mM L-Glutamine (BioConcept, #5-10K50-H, lot. LA03467P), 1% Pen/Strep (BioConcept, #4-01F00-H, lot. LB04235P).

OCI-LY3 cells = experiment: Resazurin cell viability assay in DLBCL cells (OCI-LY3); details: Homo sapiens, OCI-Ly3, 72 h, OCI-LY3 cells (BTK independent), 50% growth inhibition, read-out: OCI-LY3 Prol GI50
Procedure: as §1, §6, §7, §8, §9
OCI-LY3 cells were acquired through a license agreement with University Health Network, Toronto, Canada. Cells are cultivated in RPMI1640 media (Gibco, #61870-010, lot. 1894759), supplemented with 10% FCS (HyClone, GE #SH30066.03, lot AB217603), 2 mM L-Glutamine (BioConcept, #5-10K50-H, lot. LA03467P), 1 mM Sodium Pyruvate (BioConcept, #5-60F00-H, lot. LB10510P), 10 mM HEPES (Gibco, #15630-056, lot. 1854074), 1% Pen/Strep (BioConcept, #4-01F00-H, lot. LB04235P).

IKZF3-GFP = molecular target: T2, IKZF3-GFP (Homo sapiens, UniProt Q9UKT9); experiment: IKZF3-GFP protein abundance flow cytometry assay in HEK293A cells; details: 24 h, Table 1
T2 construct: gateway cloning of IKZF3 from a pENTR221-IKZF3(STOP-Leu) construct into the previously described pLenti6-DEST-GFP-Ires-RFP vector; expressed in transfected cells; host or cells: HEK293A cells (Invitrogen R70507), lentiviral transduction with pLenti6-IKZF3-GFP-Ires-RFP, blasticidin-selected
Procedure: Compounds of the invention were tested in the following cellular assays. […] TMD8 cells are BTK dependent and OCI-LY3 cells are BTK independent.
as §2, §3, §4, §5
Data is shown in Table 2, in which, DC50 refers to the concentration at which 50% maximal degradation was observed; deg Amax is the extent of degradation and the value refers to the % protein remaining at the concentration at which maximum degradation is seen.

T1 sequence (Q06187 whole entry): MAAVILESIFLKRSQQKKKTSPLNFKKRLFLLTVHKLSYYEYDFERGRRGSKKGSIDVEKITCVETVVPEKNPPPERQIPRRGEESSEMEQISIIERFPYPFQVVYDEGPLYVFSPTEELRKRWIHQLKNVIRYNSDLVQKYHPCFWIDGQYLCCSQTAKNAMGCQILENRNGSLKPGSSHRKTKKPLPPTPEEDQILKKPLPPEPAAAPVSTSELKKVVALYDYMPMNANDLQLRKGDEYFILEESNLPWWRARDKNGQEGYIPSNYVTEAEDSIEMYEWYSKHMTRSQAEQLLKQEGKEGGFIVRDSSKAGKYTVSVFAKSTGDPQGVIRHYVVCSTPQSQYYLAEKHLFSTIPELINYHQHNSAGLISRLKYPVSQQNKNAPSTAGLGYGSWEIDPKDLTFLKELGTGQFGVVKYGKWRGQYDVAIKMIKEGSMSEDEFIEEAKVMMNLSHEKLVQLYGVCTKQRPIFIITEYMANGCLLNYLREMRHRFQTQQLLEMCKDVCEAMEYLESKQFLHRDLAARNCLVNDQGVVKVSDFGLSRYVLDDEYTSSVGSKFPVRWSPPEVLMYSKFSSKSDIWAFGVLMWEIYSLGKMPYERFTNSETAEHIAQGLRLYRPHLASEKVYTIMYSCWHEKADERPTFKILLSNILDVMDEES
T1 sequence (Q96SW2 whole entry): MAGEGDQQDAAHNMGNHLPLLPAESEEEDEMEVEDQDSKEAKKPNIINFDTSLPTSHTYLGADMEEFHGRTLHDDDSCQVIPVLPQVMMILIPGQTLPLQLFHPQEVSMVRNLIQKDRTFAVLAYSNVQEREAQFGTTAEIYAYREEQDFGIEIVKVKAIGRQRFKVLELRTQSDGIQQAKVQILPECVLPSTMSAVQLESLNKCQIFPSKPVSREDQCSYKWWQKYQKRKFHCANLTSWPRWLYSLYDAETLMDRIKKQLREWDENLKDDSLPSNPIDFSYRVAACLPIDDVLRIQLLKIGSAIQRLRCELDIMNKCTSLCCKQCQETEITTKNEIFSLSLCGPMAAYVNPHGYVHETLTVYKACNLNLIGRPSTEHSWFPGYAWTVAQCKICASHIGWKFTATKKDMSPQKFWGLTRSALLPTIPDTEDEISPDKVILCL
T1 sequence (Q16531 whole entry partner): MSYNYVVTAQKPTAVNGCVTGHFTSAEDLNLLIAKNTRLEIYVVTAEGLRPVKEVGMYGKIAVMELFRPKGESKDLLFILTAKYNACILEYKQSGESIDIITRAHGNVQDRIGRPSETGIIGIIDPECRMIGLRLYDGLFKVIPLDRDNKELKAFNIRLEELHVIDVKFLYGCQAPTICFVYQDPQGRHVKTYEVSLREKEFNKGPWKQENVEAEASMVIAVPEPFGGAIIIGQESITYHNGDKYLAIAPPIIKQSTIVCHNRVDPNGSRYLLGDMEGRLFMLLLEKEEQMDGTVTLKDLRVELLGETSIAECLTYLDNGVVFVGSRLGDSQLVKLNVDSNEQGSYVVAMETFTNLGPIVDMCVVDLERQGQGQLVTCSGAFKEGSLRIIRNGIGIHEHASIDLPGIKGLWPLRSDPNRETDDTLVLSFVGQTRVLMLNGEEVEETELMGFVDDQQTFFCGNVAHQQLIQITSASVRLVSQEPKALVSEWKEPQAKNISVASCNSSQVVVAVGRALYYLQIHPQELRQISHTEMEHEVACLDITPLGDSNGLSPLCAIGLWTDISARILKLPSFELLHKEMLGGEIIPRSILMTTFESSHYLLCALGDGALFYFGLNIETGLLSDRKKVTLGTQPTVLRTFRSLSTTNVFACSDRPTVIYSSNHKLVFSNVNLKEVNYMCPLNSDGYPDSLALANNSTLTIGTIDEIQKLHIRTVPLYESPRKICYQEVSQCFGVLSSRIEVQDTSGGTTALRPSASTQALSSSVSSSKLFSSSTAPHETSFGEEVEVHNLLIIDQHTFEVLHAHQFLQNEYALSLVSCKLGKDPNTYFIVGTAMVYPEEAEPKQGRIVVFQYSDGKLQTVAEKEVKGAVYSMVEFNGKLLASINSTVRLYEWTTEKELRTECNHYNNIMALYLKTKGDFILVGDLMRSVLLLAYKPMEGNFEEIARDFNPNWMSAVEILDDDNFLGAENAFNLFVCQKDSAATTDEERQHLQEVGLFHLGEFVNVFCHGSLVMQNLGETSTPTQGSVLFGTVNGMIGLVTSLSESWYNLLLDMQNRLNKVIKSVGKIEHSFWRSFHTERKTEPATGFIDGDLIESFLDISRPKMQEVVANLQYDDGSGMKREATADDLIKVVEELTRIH
T2 sequence (Q96SW2 whole entry partner): as the sequence (Q96SW2 whole entry) above
T2 sequence (Q16531 whole entry partner): as the sequence (Q16531 whole entry partner) above
T2 sequence (Q9UKT9 whole entry): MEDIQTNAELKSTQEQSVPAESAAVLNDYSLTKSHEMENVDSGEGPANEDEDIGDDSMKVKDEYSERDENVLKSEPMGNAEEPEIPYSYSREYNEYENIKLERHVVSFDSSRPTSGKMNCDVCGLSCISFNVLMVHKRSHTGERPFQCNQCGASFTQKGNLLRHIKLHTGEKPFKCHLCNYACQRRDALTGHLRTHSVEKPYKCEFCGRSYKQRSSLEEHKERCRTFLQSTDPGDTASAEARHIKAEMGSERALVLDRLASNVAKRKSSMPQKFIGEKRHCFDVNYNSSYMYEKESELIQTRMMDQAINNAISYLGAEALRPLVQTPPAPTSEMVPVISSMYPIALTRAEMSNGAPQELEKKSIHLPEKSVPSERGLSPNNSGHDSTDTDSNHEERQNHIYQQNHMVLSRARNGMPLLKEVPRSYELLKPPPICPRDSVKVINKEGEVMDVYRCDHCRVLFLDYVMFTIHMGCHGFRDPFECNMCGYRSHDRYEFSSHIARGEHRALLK

Row | Structure (SMILES) | BTK deg Amax % (BTK-GFP) [%] | DC50 (BTK-GFP) [nM] | GI50 (TMD8 cells) [nM] | GI50 (OCI-LY3 cells) [nM] | IKZF3 deg Amax % (IKZF3-GFP; % protein remaining at maximum degradation) [%] | DC50 (IKZF3-GFP) [nM]
1 | COc1ccc(C(=O)N2CCC(CN3CCN(Cc4ccc(-c5cc6c(-c7cc(F)cc(NC(=O)N8C[C@@H](CC(C)C)[C@H](O)C8)c7C)ncnc6[nH]5)cc4)CC3)CC2)cc1N1CCC(=O)NC1=O [Compound 10, (3S,4R)—N-(3-(6-(4-((4-((1-(3-(2,4-Dioxotetrahydropyrimidin-1(2H)-yl)-4-methoxybenzoyl)piperidin-4-yl)methyl)piperazin-1-yl)methyl)phenyl)-7H-pyrrolo[2,3-d]pyrimidin-4-yl)-5-fluoro-2-methylphenyl)-3-hydroxy-4-isobutylpyrrolidine-1-carboxamide] | 7.4 | 15.5 | 2.31 | 4080 | 99.3 | > 370
2 | COc1ccc(C(=O)N2CCC3(CCN(CCc4ccc(-c5cc6c(-c7ccc(F)c(NC(=O)N8C[C@H](CC(C)C)[C@@H](O)C8)c7C)ncnc6[nH]5)cc4)CC3)CC2)cc1N1CCC(=O)NC1=O [Compound 17, (3R,4S)—N-(3-(6-(4-(2-(9-(3-(2,4-dioxotetrahydropyrimidin-1(2H)-yl)-4-methoxybenzoyl)-3,9-diazaspiro[5.5]undecan-3-yl)ethyl)phenyl)-7H-pyrrolo[2,3-d]pyrimidin-4-yl)-6-fluoro-2-methylphenyl)-3-hydroxy-4-isobutylpyrrolidine-1-carboxamide] | 4 | 5.5 | 0.49 | > 10000 |  | 
3 | COc1ccc(C(=O)N2CCC(OCCN3CCC(Oc4ccc(-c5cc6c(-c7cc(F)cc(NC(=O)N8C[C@H](CC(C)C)[C@@H](O)C8)c7C)ncnc6[nH]5)cc4)CC3)CC2)cc1N1CCC(=O)NC1=O [Compound 20, (3R,4S)—N-(3-(6-(4-((1-(2-((1-(3-(2,4-Dioxotetrahydropyrimidin-1(2H)-yl)-4-methoxybenzoyl)piperidin-4-yl)oxy)ethyl)piperidin-4-yl)oxy)phenyl)-7H-pyrrolo[2,3-d]pyrimidin-4-yl)-5-fluoro-2-methylphenyl)-3-hydroxy-4-isobutylpyrrolidine-1-carboxamide] | 2.4 | 1.1 | 0.29 | 3700 |  | 
4 | COc1ccc(C(=O)N2CCC(CCN3CCC(OCc4ccc(-c5cc6c(-c7cc(F)cc(NC(=O)N8C[C@@H](CC(C)C)[C@H](O)C8)c7C)ncnc6[nH]5)cc4)CC3)CC2)cc1N1CCC(=O)NC1=O [Compound 21, (3S,4R)—N-(3-(6-(4-(((1-(2-(1-(3-(2,4-Dioxotetrahydropyrimidin-1 (2H)-yl)-4-methoxybenzoyl)piperidin-4-yl)ethyl)piperidin-4-yl)oxy)methyl)phenyl)-7H-pyrrolo[2,3-d]pyrimidin-4-yl)-5-fluoro-2-methylphenyl)-3-hydroxy-4-isobutylpyrrolidine-1-carboxamide] | 4 | 15.6 | 1.17 | 3600 |  | 
